Laboratory results: PubChem BioAssay (NCI)
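The compound was tested at five concentrations on cells cultured in 96-well plates, with a 48-hour exposure period. TGI marks complete inhibition of growth.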

Tests used:
Assay in all cases: NCI anticancer screen, dose series, 48 h
[1] = tested on: MCF7 breast
[2] = tested on: SW-620 colon
[3] = tested on: NCI-H23 lung
[4] = tested on: NCI-H226 lung
[5] = tested on: ACHN renal
[6] = tested on: HCT-15 colon
[7] = tested on: EKVX NSCLC
[8] = tested on: M14 melanoma
[9] = tested on: SF-268 CNS
[10] = tested on: RPMI-8226 leukemia
[11] = tested on: MDA-MB-435
[12] = tested on: OVCAR-8 ovarian
[13] = tested on: UACC-257 melanoma
[14] = tested on: HOP-92 NSCLC
[15] = tested on: A498 renal
[16] = tested on: IGROV1 ovarian
[17] = tested on: CCRF-CEM leukemia
[18] = tested on: U251 CNS
[19] = tested on: COLO 205 colon
[20] = tested on: PC-3 prostate
[21] = tested on: CAKI-1 renal
[22] = tested on: SK-MEL-2 melanoma
[23] = tested on: HT29 colon
[24] = tested on: OVCAR-3 ovarian
[25] = tested on: OVCAR-4 ovarian
[26] = tested on: OVCAR-5 ovarian
[27] = tested on: MOLT-4 leukemia
[28] = tested on: UACC-62 melanoma
[29] = tested on: SK-MEL-28 melanoma
[30] = tested on: KM12 colon
[31] = tested on: K-562 leukemia
[32] = tested on: SNB-19 CNS
[33] = tested on: MDA-N
[34] = tested on: T-47D breast
[35] = tested on: HOP-62 NSCLC
[36] = tested on: SNB-75 CNS
[37] = tested on: NCI/ADR-RES ovarian
[38] = tested on: NCI-H460 lung
[39] = tested on: A549 NSCLC
[40] = tested on: SK-MEL-5 melanoma
[41] = tested on: SR leukemia
[42] = tested on: SK-OV-3 ovarian
[43] = tested on: UO-31 renal
[44] = tested on: HL-60(TB) leukemia
[45] = tested on: HS 578T breast
[46] = tested on: SF-539 CNS
[47] = tested on: DU-145 prostate
[48] = tested on: SF-295 CNS
[49] = tested on: MDA-MB-231 breast
[50] = tested on: SN12C renal
[51] = tested on: NCI-H522 lung
[52] = tested on: TK-10 renal
[53] = tested on: 786-0 renal
[54] = tested on: MALME-3M melanoma
[55] = tested on: HCT-116 colon
[56] = tested on: LOX IMVI melanoma
[57] = tested on: HCC-2998 colon
[58] = tested on: RXF 393 renal
[59] = tested on: BT-549 breast

O=C1CCC[C@H]2O[C@@H](COC(=O)c3ccccc3)C[C@H]2O1
TGI [1]: > 100 µM | TGI [2]: > 100 µM | TGI [3]: > 100 µM | TGI [4]: > 100 µM | TGI [5]: > 100 µM | TGI [6]: > 100 µM | TGI [7]: > 100 µM | TGI [8]: > 100 µM | TGI [9]: > 100 µM | TGI [10]: > 100 µM | TGI [11]: > 100 µM | TGI [12]: > 100 µM | TGI [13]: > 100 µM | TGI [14]: > 100 µM | TGI [15]: > 100 µM | TGI [16]: > 100 µM | TGI [17]: > 100 µM | TGI [18]: > 100 µM | TGI [19]: > 100 µM | TGI [20]: > 100 µM | TGI [21]: > 100 µM | TGI [22]: > 100 µM | TGI [23]: > 100 µM | TGI [24]: > 100 µM | TGI [25]: > 100 µM | TGI [26]: > 100 µM | TGI [27]: > 100 µM | TGI [28]: > 100 µM | TGI [29]: > 100 µM | TGI [30]: > 100 µM | TGI [31]: > 100 µM | TGI [32]: > 100 µM | TGI [33]: > 100 µM | TGI [34]: > 100 µM | TGI [35]: > 100 µM | TGI [36]: > 100 µM | TGI [37]: > 100 µM | TGI [38]: > 100 µM | TGI [39]: > 100 µM | TGI [40]: > 100 µM | TGI [41]: > 100 µM | TGI [42]: > 100 µM | TGI [43]: > 100 µM | TGI [44]: > 100 µM | TGI [45]: > 100 µM | TGI [46]: > 100 µM | TGI [47]: > 100 µM | TGI [48]: > 100 µM | TGI [49]: > 100 µM | TGI [50]: > 100 µM

C1CCCCC2(CCCCCCCCC3(CCC1)SCCS3)SCCS2
TGI [1]: > 100 µM | TGI [2]: > 100 µM | TGI [3]: > 100 µM | TGI [4]: > 100 µM | TGI [51]: > 100 µM | TGI [52]: > 100 µM | TGI [5]: > 100 µM | TGI [6]: > 100 µM | TGI [7]: > 100 µM | TGI [8]: > 100 µM | TGI [9]: > 100 µM | TGI [11]: > 100 µM | TGI [12]: > 100 µM | TGI [13]: > 100 µM | TGI [14]: > 100 µM | TGI [15]: > 100 µM | TGI [16]: > 100 µM | TGI [18]: > 100 µM | TGI [19]: > 100 µM | TGI [53]: > 100 µM | TGI [20]: > 100 µM | TGI [21]: > 100 µM | TGI [22]: > 100 µM | TGI [23]: > 100 µM | TGI [54]: > 100 µM | TGI [24]: > 100 µM | TGI [25]: > 100 µM | TGI [26]: > 100 µM | TGI [28]: > 100 µM | TGI [29]: > 100 µM | TGI [30]: > 100 µM | TGI [31]: > 100 µM | TGI [32]: > 100 µM | TGI [33]: > 100 µM | TGI [34]: > 100 µM | TGI [35]: > 100 µM | TGI [36]: > 100 µM | TGI [37]: > 100 µM | TGI [38]: > 100 µM | TGI [55]: > 100 µM | TGI [39]: > 100 µM | TGI [40]: > 100 µM | TGI [41]: > 100 µM | TGI [42]: > 100 µM | TGI [44]: > 100 µM | TGI [56]: > 100 µM | TGI [45]: > 100 µM | TGI [46]: > 100 µM | TGI [57]: > 100 µM | TGI [47]: > 100 µM | TGI [48]: > 100 µM | TGI [50]: > 100 µM

CCOC(=O)c1cn2c(n1)sc1cc(OC)ccc12
TGI [1]: > 100 µM | TGI [2]: > 100 µM | TGI [3]: > 100 µM | TGI [4]: 98.2 µM | TGI [51]: > 100 µM | TGI [52]: > 100 µM | TGI [5]: > 100 µM | TGI [6]: > 55.3 µM | TGI [7]: > 100 µM | TGI [8]: > 100 µM | TGI [9]: > 100 µM | TGI [10]: > 100 µM | TGI [11]: 3.48 µM | TGI [12]: > 100 µM | TGI [13]: > 100 µM | TGI [14]: > 100 µM | TGI [15]: > 100 µM | TGI [16]: > 100 µM | TGI [18]: 21.9 µM | TGI [19]: > 27.5 µM | TGI [53]: > 100 µM | TGI [20]: > 100 µM | TGI [21]: > 100 µM | TGI [22]: > 100 µM | TGI [23]: 20.2 µM | TGI [54]: > 100 µM | TGI [24]: > 44.8 µM | TGI [25]: > 100 µM | TGI [26]: > 100 µM | TGI [27]: > 100 µM | TGI [28]: > 100 µM | TGI [29]: > 100 µM | TGI [30]: > 100 µM | TGI [31]: > 100 µM | TGI [32]: > 100 µM | TGI [33]: > 22.6 µM | TGI [35]: > 100 µM | TGI [36]: > 100 µM | TGI [58]: 64.1 µM | TGI [37]: > 87.3 µM | TGI [38]: > 100 µM | TGI [55]: > 43.9 µM | TGI [39]: > 100 µM | TGI [40]: > 44.3 µM | TGI [42]: > 100 µM | TGI [43]: > 100 µM | TGI [56]: > 100 µM | TGI [45]: 81.2 µM | TGI [59]: > 100 µM | TGI [46]: > 100 µM | TGI [57]: > 100 µM | TGI [47]: 24.6 µM | TGI [48]: > 65.5 µM | TGI [49]: > 100 µM | TGI [50]: > 100 µM

CCOP(=O)(OCC)/C(C#N)=C/c1ccccn1
TGI [1]: > 100 µM | TGI [2]: > 100 µM | TGI [3]: > 100 µM | TGI [4]: > 100 µM | TGI [51]: > 100 µM | TGI [52]: > 100 µM | TGI [5]: > 100 µM | TGI [6]: > 100 µM | TGI [7]: > 100 µM | TGI [8]: > 100 µM | TGI [9]: > 100 µM | TGI [10]: > 100 µM | TGI [11]: > 100 µM | TGI [12]: > 100 µM | TGI [13]: > 100 µM | TGI [14]: > 100 µM | TGI [15]: > 100 µM | TGI [16]: > 100 µM | TGI [17]: > 100 µM | TGI [18]: > 100 µM | TGI [19]: > 100 µM | TGI [53]: > 100 µM | TGI [21]: > 100 µM | TGI [23]: > 100 µM | TGI [54]: > 100 µM | TGI [24]: > 100 µM | TGI [25]: > 100 µM | TGI [26]: > 100 µM | TGI [27]: > 100 µM | TGI [28]: > 100 µM | TGI [29]: > 100 µM | TGI [30]: > 100 µM | TGI [31]: > 100 µM | TGI [32]: > 100 µM | TGI [33]: > 100 µM | TGI [34]: > 100 µM | TGI [35]: > 100 µM | TGI [36]: > 100 µM | TGI [58]: > 100 µM | TGI [37]: > 100 µM | TGI [38]: > 100 µM | TGI [55]: > 100 µM | TGI [39]: > 100 µM | TGI [40]: > 100 µM | TGI [41]: > 100 µM | TGI [42]: > 100 µM | TGI [44]: > 100 µM | TGI [56]: > 100 µM | TGI [45]: > 100 µM | TGI [46]: > 100 µM | TGI [57]: > 100 µM | TGI [47]: > 100 µM | TGI [48]: > 100 µM | TGI [49]: > 100 µM | TGI [50]: > 100 µM
